The source of these data is PMC5372988, “Bulgecin A: The Key to a Broad-Spectrum Inhibitor That Targets Lytic Transglycosylases” (Antibiotics, 2017).

SMILES strings stand for the structures.

In this assay the target is T1, LtgA (Neisseria meningitidis, UniProt Q9JXP1).
T1 construct: gene NMB1949; GST fusion from pGEX-4T1, GST cut by thrombin; E. coli BL21(DE3) Gold; 577 residues in model
T1 sequence (Q9JXP1 26-616): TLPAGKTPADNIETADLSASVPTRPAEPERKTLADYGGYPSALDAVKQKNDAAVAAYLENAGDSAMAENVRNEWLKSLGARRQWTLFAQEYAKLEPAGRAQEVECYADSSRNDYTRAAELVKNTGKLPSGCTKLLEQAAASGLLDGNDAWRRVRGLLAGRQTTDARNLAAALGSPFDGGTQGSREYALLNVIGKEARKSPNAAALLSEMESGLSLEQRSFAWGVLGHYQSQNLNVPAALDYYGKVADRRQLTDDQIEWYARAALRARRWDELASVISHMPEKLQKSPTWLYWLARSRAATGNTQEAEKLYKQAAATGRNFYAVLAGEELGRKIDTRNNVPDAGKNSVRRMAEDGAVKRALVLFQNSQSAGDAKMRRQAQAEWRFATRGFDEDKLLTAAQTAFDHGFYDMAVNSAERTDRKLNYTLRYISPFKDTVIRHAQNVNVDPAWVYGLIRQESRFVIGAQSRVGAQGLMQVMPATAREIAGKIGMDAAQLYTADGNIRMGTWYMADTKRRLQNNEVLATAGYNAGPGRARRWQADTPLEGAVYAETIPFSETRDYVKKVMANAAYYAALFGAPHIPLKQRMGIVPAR
Put plainly: RP-HPLC of muropeptides released from N. meningitidis peptidoglycan. The assay is classed as biochemical.

For the compound `CC(=O)N[C@H]1[C@H](O[C@H]2C[C@@H](C(=O)NCCS(=O)(=O)O)N[C@@H]2CO)O[C@H](CO)[C@@H](OS(=O)(=O)O)[C@@H]1O` [bulgecin A], the inhibition at 90 µM was determined as 66 ± 9.4%.
